In patent US12441710B2, “Substituted piperidino compounds and related methods of treatment” (Alkermes, Inc., priority 2020, dated 2025):

What follows are compounds tested against T1, human orexin-2 receptor (OX2R) (Homo sapiens, UniProt O43614) (assay: Human OX2R IP1 assay). Settings: T-Rex CHO cells stably overexpressing human OX2R; IP1 accumulation, 1 hr at 37 degrees C.
T1 construct: expressed in transfected cells
T1 sequence (O43614 1-444): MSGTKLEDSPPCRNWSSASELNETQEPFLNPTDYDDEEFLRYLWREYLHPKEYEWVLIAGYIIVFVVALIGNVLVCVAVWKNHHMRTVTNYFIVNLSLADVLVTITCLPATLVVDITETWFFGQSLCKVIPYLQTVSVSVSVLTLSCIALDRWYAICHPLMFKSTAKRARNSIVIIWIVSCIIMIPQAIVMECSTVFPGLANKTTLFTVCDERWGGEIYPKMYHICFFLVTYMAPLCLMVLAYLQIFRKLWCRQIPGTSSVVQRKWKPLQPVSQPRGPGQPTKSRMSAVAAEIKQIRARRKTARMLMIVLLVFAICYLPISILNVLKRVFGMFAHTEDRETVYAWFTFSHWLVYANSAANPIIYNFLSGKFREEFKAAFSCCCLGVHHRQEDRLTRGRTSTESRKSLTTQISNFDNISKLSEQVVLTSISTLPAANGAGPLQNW
Format: cell-based
Procedure: T-Rex CHO cells stably overexpressing the human orexin-2 receptor (OX2R) were induced overnight with 1 μg/mL of doxycycline in a T225 flask. 24 hours post induction, cells were lifted with accutase and plated into a 384-well proxy plate at 30,000 cells/well. Cells were then treated with different test compounds in 1× stimulation buffer containing 10 mM Hepes, 1 mM CaCl2), 0.5 mM MgCl2, 4.2 mM KCl, 146 mM NaCl, 5.5 mM glucose, and 50 mM LiCl, pH 7.4, for 1 hr at 37 degrees C. Following incubation, the reaction was terminated by the addition of detection mix, which is composed of IP1-d2 and anti-IP1-cryptate diluted in lysis buffer as well as 1× stimulation buffer. The plates were allowed to incubate for 1 hour at room temperature and were then read in the EnVision® multimode plate reader, measuring inositol phosphate levels.
Cisbio IP1 is a cell-based functional assay quantifying the accumulation of inositol monophosphate (IP), a metabolite released as a result of orexin 2 receptor activation through the phospholipase C-Gq signaling pathway. This is a competitive immunoassay in which the IP1 produced by the cells upon receptor activation competes with the IP1 analog coupled to the d2 fluorophore (acceptor) for binding to an anti-IP1 monoclonal antibody labeled with Eu cryptate (donor). The measured HTRF-FRET based signal is inversely proportional to the IP1 concentration produced.
The EC50 values reported in Table 2 were obtained according to the human OX2R IP1 assay described above. Data are the mean EC50 values±S.E.M. The compound methyl (2R,3S)-3-((methylsulfonyl)amino)-2-(((cis-4-phenylcyclohexyl)oxy)methyl)-piperidine-1-carboxylate (sometimes referred to herein as Reference Compound A) is a reference compound which is disclosed in Example 5 of PCT publication no. WO2017/135306.

SMILES	EC50 [nM]
CS(=O)(=O)N[C@H]1CCN(c2ccccn2)C[C@H]1CO[C@H]1CC[C@@H](c2ccccn2)CC1 [Compound 2]	< 100
CS(=O)(=O)N[C@H]1CCN(c2ccccn2)C[C@H]1CO[C@H]1CC[C@@H](c2cccnc2)CC1 [Compound 3]	< 100
CS(=O)(=O)N[C@H]1CCN(c2ccccn2)C[C@H]1CO[C@H]1CC[C@@H](c2ccncc2)CC1 [Compound 4]	< 100
CS(=O)(=O)N[C@H]1CCN(c2ccccn2)C[C@H]1CO[C@H]1CC[C@@H](c2ccccc2F)CC1 [Compound 5]	< 100
CS(=O)(=O)N[C@H]1CCN(c2ccccn2)C[C@H]1CO[C@H]1CC[C@@H](c2ccc(F)cc2)CC1 [Compound 7]	< 100
CS(=O)(=O)N[C@H]1CCN(c2ccccn2)C[C@H]1CO[C@H]1CC[C@@H](c2ccncn2)CC1 [Compound 8]	> 1000
CS(=O)(=O)N[C@H]1CCN(c2ccccn2)C[C@H]1CO[C@H]1CC[C@@H](c2cnccn2)CC1 [Compound 9]	> 1000
CS(=O)(=O)N[C@H]1CCN(c2ccccn2)C[C@H]1CO[C@H]1CC[C@@H](c2ccccc2)CC1 [Compound 10]	< 100
CS(=O)(=O)N[C@H]1CCN(c2ccccn2)C[C@H]1CO[C@H]1CC[C@@H](c2ncccn2)CC1 [Compound 11]	> 1000
CS(=O)(=O)N[C@H]1CCN(c2ccccn2)C[C@H]1CO[C@H]1CC[C@@H](c2cncnc2)CC1 [Compound 12]	> 1000
CS(=O)(=O)N[C@H]1CCN(c2ccccn2)C[C@H]1CO[C@H]1CC[C@@H](c2ccnnc2)CC1 [Compound 13]	> 1000
CS(=O)(=O)N[C@H]1CCN(c2ccccn2)C[C@H]1CO[C@H]1CC[C@@H](c2cccnn2)CC1 [Compound 14]	> 1000
Cc1ccccc1[C@H]1CC[C@@H](OC[C@@H]2CN(c3ccccn3)CC[C@@H]2NS(C)(=O)=O)CC1 [Compound 15]	< 100
Cc1cccc([C@H]2CC[C@@H](OC[C@@H]3CN(c4ccccn4)CC[C@@H]3NS(C)(=O)=O)CC2)c1 [Compound 16]	< 100
Cc1cccc([C@H]2CC[C@@H](OC[C@@H]3CN(c4ccccn4)CC[C@@H]3NS(C)(=O)=O)CC2)c1C [Compound 17]	< 100
Cc1cc(C)cc([C@H]2CC[C@@H](OC[C@@H]3CN(c4ccccn4)CC[C@@H]3NS(C)(=O)=O)CC2)c1 [Compound 18]	< 100
CS(=O)(=O)N[C@H]1CCN(c2ncccn2)C[C@H]1CO[C@H]1CC[C@@H](c2ccccc2)CC1 [Compound 19]	< 100
CS(=O)(=O)N[C@H]1CCN(c2ccncn2)C[C@H]1CO[C@H]1CC[C@@H](c2ccccc2)CC1 [Compound 20]	< 100
CS(=O)(=O)N[C@H]1CCN(c2cnccn2)C[C@H]1CO[C@H]1CC[C@@H](c2ccccc2)CC1 [Compound 21]	< 100
CS(=O)(=O)N[C@H]1CCN(c2cccnn2)C[C@H]1CO[C@H]1CC[C@@H](c2ccccc2)CC1 [Compound 22]	< 100
CS(=O)(=O)N[C@H]1CCN(c2cccc(F)n2)C[C@H]1CO[C@H]1CC[C@@H](c2ccccc2)CC1 [Compound 23]	< 100
CS(=O)(=O)N[C@H]1CCN(c2ccc(F)cn2)C[C@H]1CO[C@H]1CC[C@@H](c2ccccc2)CC1 [Compound 24]	< 100
CS(=O)(=O)N[C@H]1CCN(c2ncccc2F)C[C@H]1CO[C@H]1CC[C@@H](c2ccccc2)CC1 [Compound 26]	< 100
CS(=O)(=O)N[C@H]1CCN(c2ncccc2O)C[C@H]1CO[C@H]1CC[C@@H](c2ccccc2)CC1 [Compound 27]	< 100
CS(=O)(=O)N[C@H]1CCN(c2ncccc2C(F)(F)F)C[C@H]1CO[C@H]1CC[C@@H](c2ccccc2)CC1 [Compound 28]	< 100
C[C@@]1(CO[C@H]2CC[C@@H](c3ccccc3)CC2)CN(c2ccccn2)CC[C@@H]1NS(C)(=O)=O [Compound 29]	< 100
CS(=O)(=O)N[C@H]1CCN(c2ccccn2)C[C@H]1CO[C@H]1CC[C@@H](c2ccccc2O)CC1 [Compound 30]	100 to 1000
CS(=O)(=O)N[C@H]1CCN(c2ccccn2)C[C@H]1CO[C@H]1CC[C@@H](c2cccc(O)c2)CC1 [Compound 31]	< 100
